In patent publication US8143290B2, “Chemical compounds 572” (AstraZeneca AB, priority 2006, dated 2012):

Target: T1, recombinant human GR (Homo sapiens, UniProt P04150)
T1 construct: purchased Panvera/Invitrogen P2812 (kit P2893)
T1 sequence (P04150 1-777): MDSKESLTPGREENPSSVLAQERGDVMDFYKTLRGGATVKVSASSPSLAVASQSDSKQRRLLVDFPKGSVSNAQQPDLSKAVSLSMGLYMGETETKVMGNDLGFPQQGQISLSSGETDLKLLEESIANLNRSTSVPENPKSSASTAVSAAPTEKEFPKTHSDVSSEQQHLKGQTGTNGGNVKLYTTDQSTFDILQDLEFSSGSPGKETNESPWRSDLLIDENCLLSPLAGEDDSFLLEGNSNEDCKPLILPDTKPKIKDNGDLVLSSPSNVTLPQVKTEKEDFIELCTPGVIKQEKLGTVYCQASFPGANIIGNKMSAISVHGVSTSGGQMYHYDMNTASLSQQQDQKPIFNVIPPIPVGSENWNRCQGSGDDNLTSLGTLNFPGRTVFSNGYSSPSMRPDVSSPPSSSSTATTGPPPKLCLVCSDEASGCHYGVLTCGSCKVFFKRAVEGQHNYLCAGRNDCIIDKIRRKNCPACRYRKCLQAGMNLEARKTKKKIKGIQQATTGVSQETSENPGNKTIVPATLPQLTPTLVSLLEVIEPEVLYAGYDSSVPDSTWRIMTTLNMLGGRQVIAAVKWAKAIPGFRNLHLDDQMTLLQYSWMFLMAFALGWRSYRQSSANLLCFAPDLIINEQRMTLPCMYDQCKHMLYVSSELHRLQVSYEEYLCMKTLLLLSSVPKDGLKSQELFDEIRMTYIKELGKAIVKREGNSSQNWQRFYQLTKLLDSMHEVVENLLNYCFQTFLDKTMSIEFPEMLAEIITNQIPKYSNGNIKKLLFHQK
Assay: Human Glucocorticoid Receptor (GR) Assay, fluorescence polarization
Type: binding
Settings: GS Red tracer, incubated 2 h at r.t., XLfit model 205, read-out: GRhuFL_FP_v2 Mean IC50
Procedure, shortened: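 Fluorescence polarization kit assay: recombinant GR and GS Red fluorescent ligand with Stabilizing Peptide and DTT in potassium phosphate/sodium molybdate/EDTA screening buffer. Plates incubated 2 h in the dark at r.t.; DMSO served as 0% and dexamethasone as 100% control.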

Work on `COCC(=O)N[C@@H](C)[C@H](Oc1ccc2c(cnn2-c2ccc(F)cc2)c1)c1ccc(OC)c(F)c1` [Example 262, N-[(1R,2S)-1-(3-fluoro-4-methoxy-phenyl)-1-[1-(4-fluorophenyl)indazol-5-yl]oxy-propan-2-yl]-2-methoxy-acetamide] yielded an IC50 of 4.5 nM.
Work on `COCC(=O)N[C@@H](C)[C@H](Oc1ccc2c(cnn2-c2ccc(F)cc2)c1)c1cccc(F)c1` [Example 263, N-[(1R,2S)-1-(3-fluorophenyl)-1-[1-(4-fluorophenyl)indazol-5-yl]oxy-propan-2-yl]-2-methoxy-acetamide] yielded an IC50 of 4.2 nM.
Compound `COc1ccc([C@@H](Oc2ccc3c(cnn3-c3ccc(F)cc3)c2)[C@H](C)NC(=O)C(F)(F)F)cc1F` [Example 264, 2,2,2-trifluoro-N-[(1R,2S)-1-(3-fluoro-4-methoxy-phenyl)-1-[1-(4-fluorophenyl)indazol-5-yl]oxy-propan-2-yl]acetamide] has an IC50 of 6.5 nM.
`COc1ccc([C@@H](Oc2ccc3c(cnn3-c3ccc(F)cc3)c2)[C@H](C)NC(=O)C2(C)CC2)c(C)c1` [Example 265, N-[(1R,2S)-1-[1-(4-fluorophenyl)indazol-5-yl]oxy-1-(4-methoxy-2-methyl-phenyl)propan-2-yl]-1-methyl-cyclopropane-1-carboxamide] gave an IC50 of 25 nM.
For `Cc1ccc(C)c([C@@H](Oc2ccc3c(cnn3-c3ccc(F)cc3)c2)[C@H](C)NC(=O)C(C)(F)F)c1` [Example 266, N-[(1R,2S)-1-(2,5-dimethylphenyl)-1-[1-(4-fluorophenyl)indazol-5-yl]oxy-propan-2-yl]-2,2-difluoro-propanamide], the IC50 was 2.9 nM.
`COc1cccc([C@@H](Oc2ccc3c(cnn3-c3ccc(F)cc3)c2)[C@H](C)NC(=O)CNC(C)=O)c1` [Example 269, N-[[(1R,2S)-1-[1-(4-fluorophenyl)indazol-5-yl]oxy-1-(3-methoxyphenyl)propan-2-yl]carbamoylmethyl]acetamide] was tested, and the IC50 was 12 nM.
`COc1cccc([C@@H](Oc2ccc3c(cnn3-c3ccc(F)cc3)c2)[C@H](C)NC(=O)CNC(N)=O)c1` [Example 270, 2-(carbamoylamino)-N-[(1R,2S)-1-[1-(4-fluorophenyl)indazol-5-yl]oxy-1-(3-methoxyphenyl)propan-2-yl]acetamide] showed an IC50 of 8.1 nM.
Work on `COc1cccc([C@@H](Oc2ccc3c(cnn3-c3ccc(F)cc3)c2)[C@H](C)N2C(=O)CNC2=O)c1` [Example 271, 3-[(1R,2S)-1-[1-(4-fluorophenyl)indazol-5-yl]oxy-1-(3-methoxyphenyl)propan-2-yl]imidazolidine-2,4-dione] yielded an IC50 of 21 nM.
`COc1cccc([C@@H](Oc2ccc3c(cnn3-c3ccc(F)cc3)c2)[C@H](C)NC(=O)c2ccc(Br)s2)c1` [Example 272, 5-bromo-N-[(1R,2S)-1-[1-(4-fluorophenyl)indazol-5-yl]oxy-1-(3-methoxyphenyl)propan-2-yl]thiophene-2-carboxamide] showed an IC50 of 4.3 nM.
Work on `COc1cccc([C@@H](Oc2ccc3c(cnn3-c3ccc(F)cc3)c2)[C@H](C)NC(=O)c2ccc(S(C)(=O)=O)s2)c1` [Example 273, N-[(1R,2S)-1-[1-(4-fluorophenyl)indazol-5-yl]oxy-1-(3-methoxyphenyl)propan-2-yl]-5-methylsulfonyl-thiophene-2-carboxamide] yielded an IC50 of 7.9 nM.
For `COc1cccc([C@@H](Oc2ccc3c(cnn3-c3ccc(F)cc3)c2)[C@H](C)NC(=O)c2ncc(C)s2)c1` [Example 274, N-[(1R,2S)-1-[1-(4-fluorophenyl)indazol-5-yl]oxy-1-(3-methoxyphenyl)propan-2-yl]-5-methyl-1,3-thiazole-2-carboxamide], the IC50 was 3.9 nM.
With `COc1cccc([C@@H](Oc2ccc3c(cnn3-c3ccc(F)cc3)c2)[C@H](C)NC(=O)c2cc(C#N)cs2)c1` [Example 275, 4-cyano-N-[(1R,2S)-1-[1-(4-fluorophenyl)indazol-5-yl]oxy-1-(3-methoxyphenyl)propan-2-yl]thiophene-2-carboxamide] the IC50 was 4 nM.
